Assay results: ChEMBL document CHEMBL1153306, “Relation between lipophilicity of alkyl gallates and antifungal activity against yeasts and filamentous fungi” (Bioorg Med Chem Lett, 2009)
Converted amounts (≈) assume the structure as drawn.

Columns and labels:
Candida albicans = assay: Antifungal activity against Candida albicans after 48 hrs by broth microdilution technique; format: functional
Candida tropicalis = assay: Antifungal activity against Candida tropicalis after 48 hrs by broth microdilution technique; format: functional
Saccharomyces cerevisiae = assay: Antifungal activity against Saccharomyces cerevisiae after 48 hrs by broth microdilution technique; format: functional
Cryptococcus neoformans = assay: Antifungal activity against Cryptococcus neoformans after 48 hrs by broth microdilution technique; format: functional
Aspergillus fumigatus = assay: Antimicrobial activity against Aspergillus fumigatus after 48 hrs by broth microdilution technique; format: functional
Aspergillus flavus = assay: Antimicrobial activity against Aspergillus flavus after 48 hrs by broth microdilution technique; format: functional
Aspergillus niger = assay: Antimicrobial activity against Aspergillus niger after 48 hrs by broth microdilution technique; format: functional
Nannizzia gypsea = assay: Antimicrobial activity against Microsporum gypseum after 48 hrs by broth microdilution technique; format: functional
Epidermophyton floccosum = assay: Antimicrobial activity against Epidermophyton floccosum after 48 hrs by broth microdilution technique; format: functional
Trichophyton rubrum = assay: Antimicrobial activity against Trichophyton rubrum after 48 hrs by broth microdilution technique; format: functional
[1] = test system: Trichophyton mentagrophytes; assay: Antimicrobial activity against Trichophyton mentagrophytes after 48 hrs by broth microdilution technique; format: functional
[2] = Lipophilicity, log P of the compound; format: physicochemical; details: octanol/water

SMILES	MIC (Candida albicans) [µg/mL]	MIC (Candida tropicalis) [µg/mL]	MIC (Saccharomyces cerevisiae) [µg/mL]	MIC (Cryptococcus neoformans) [µg/mL]	MIC (Aspergillus fumigatus) [µg/mL]	MIC (Aspergillus flavus) [µg/mL]	MIC (Aspergillus niger) [µg/mL]	MIC (Nannizzia gypsea) [µg/mL]	MIC (Epidermophyton floccosum) [µg/mL]	MIC (Trichophyton rubrum) [µg/mL]	MIC [1] [µg/mL]	logP [2]
CC(=O)Oc1cc(C(=O)O)cc(OC(C)=O)c1OC(C)=O [3,4,5-TRIACETOXYBENZOIC ACID]	> 250	> 250	> 250	> 250	> 250	> 250	> 250	> 250	> 250	> 250	> 250	–
CC(=O)N1CCN(c2ccc(OCC3COC(Cn4ccnc4)(c4ccc(Cl)cc4Cl)O3)cc2)CC1 (configuration not stated) [KETOCONAZOLE]	1.56 (≈ 2.94 µM)	0.125 (≈ 0.235 µM)	3.12 (≈ 5.87 µM)	0.39 (≈ 0.734 µM)	0.78 (≈ 1.47 µM)	0.78 (≈ 1.47 µM)	1.56 (≈ 2.94 µM)	–	–	–	–	–
CCCCCCCCCCCCOC(=O)c1cc(O)c(O)c(O)c1 [DODECYL GALLATE]	> 250	> 250	> 250	> 250	> 250	> 250	> 250	100 (≈ 295 µM)	–	50 (≈ 148 µM)	50 (≈ 148 µM)	–
O=C(O)c1cc(O)c(O)c(O)c1 [GALLIC ACID]	> 250	> 250	> 250	> 250	> 250	> 250	> 250	> 250	100 (≈ 588 µM)	100 (≈ 588 µM)	125 (≈ 735 µM)	–
CCCCCCCOC(=O)c1cc(O)c(O)c(O)c1 [HEPTYL GALLATE]	100 (≈ 373 µM)	100 (≈ 373 µM)	100 (≈ 373 µM)	62.5 (≈ 233 µM)	100 (≈ 373 µM)	100 (≈ 373 µM)	100 (≈ 373 µM)	6.25 (≈ 23.3 µM)	6.25 (≈ 23.3 µM)	6.25 (≈ 23.3 µM)	12.5 (≈ 46.6 µM)	–
COC(=O)c1cc(O)c(O)c(O)c1 [GALLIC ACID METHYL ESTER]	> 250	> 250	> 250	> 250	> 250	> 250	> 250	100 (≈ 543 µM)	100 (≈ 543 µM)	100 (≈ 543 µM)	100 (≈ 543 µM)	–
COc1cc(C(=O)O)cc(OC)c1OC [3,4,5-TRIMETHOXYBENZOIC ACID]	> 250	> 250	> 250	> 250	> 250	> 250	> 250	> 250	> 250	> 250	> 250	–
CCCCCCCCCCOC(=O)c1cc(O)c(O)c(O)c1 [DECYL GALLATE]	100 (≈ 322 µM)	100 (≈ 322 µM)	100 (≈ 322 µM)	50 (≈ 161 µM)	100 (≈ 322 µM)	> 250	> 250	50 (≈ 161 µM)	25 (≈ 80.5 µM)	12.5 (≈ 40.3 µM)	50 (≈ 161 µM)	–
CCCOC(=O)c1cc(O)c(O)c(O)c1 [PROPYL GALLATE]	> 250	> 250	> 250	> 250	> 250	> 250	> 250	75 (≈ 353 µM)	100 (≈ 471 µM)	50 (≈ 236 µM)	100 (≈ 471 µM)	–
C[C@@H]1[C@H](O)[C@@H](C)/C=C/C=C/C=C/C=C/C=C/C=C/C=C/[C@H](O[C@@H]2O[C@H](C)[C@@H](O)[C@H](N)[C@@H]2O)C[C@@H]2O[C@](O)(C[C@@H](O)C[C@@H](O)[C@H](O)CC[C@@H](O)C[C@@H](O)CC(=O)O[C@H]1C)C[C@H](O)[C@H]2C(=O)O [AMPHOTERICIN B]	0.78 (≈ 0.844 µM)	0.5 (≈ 0.541 µM)	0.5 (≈ 0.541 µM)	0.25 (≈ 0.271 µM)	0.5 (≈ 0.541 µM)	0.5 (≈ 0.541 µM)	0.5 (≈ 0.541 µM)	–	–	–	–	–
CCCCCCCCOC(=O)c1cc(O)c(O)c(O)c1 [OCTYL_GALLATE]	62.5 (≈ 221 µM)	62.5 (≈ 221 µM)	50 (≈ 177 µM)	50 (≈ 177 µM)	62.5 (≈ 221 µM)	62.5 (≈ 221 µM)	62.5 (≈ 221 µM)	6.25 (≈ 22.1 µM)	6.25 (≈ 22.1 µM)	6.25 (≈ 22.1 µM)	12.5 (≈ 44.3 µM)	3.7

Second part, led by results:

MIC (Candida albicans) [µg/mL]	MIC (Candida tropicalis) [µg/mL]	MIC (Saccharomyces cerevisiae) [µg/mL]	MIC (Cryptococcus neoformans) [µg/mL]	MIC (Aspergillus fumigatus) [µg/mL]	MIC (Aspergillus flavus) [µg/mL]	MIC (Aspergillus niger) [µg/mL]	MIC (Nannizzia gypsea) [µg/mL]	MIC (Epidermophyton floccosum) [µg/mL]	MIC (Trichophyton rubrum) [µg/mL]	MIC [1] [µg/mL]	SMILES	logP [2]
> 250	> 250	> 250	> 250	> 250	> 250	> 250	50 (≈ 208 µM)	100 (≈ 416 µM)	50 (≈ 208 µM)	50 (≈ 208 µM)	CCCCCOC(=O)c1cc(O)c(O)c(O)c1 [PENTYL GALLATE]	–
> 250	> 250	> 250	> 250	> 250	> 250	> 250	50 (≈ 221 µM)	100 (≈ 442 µM)	50 (≈ 221 µM)	100 (≈ 442 µM)	CCCCOC(=O)c1cc(O)c(O)c(O)c1 [BUTYL GALLATE]	–
> 250	> 250	> 250	> 250	> 250	> 250	> 250	> 250	> 250	> 250	> 250	CCOC(=O)c1cc(OC)c(OC)c(OC)c1 [ETHYLTRIMETHOXY BENZOATE]	–
> 250	> 250	> 250	250 (≈ 682 µM)	> 250	> 250	> 250	100 (≈ 273 µM)	> 250	50 (≈ 136 µM)	50 (≈ 136 µM)	CCCCCCCCCCCCCCOC(=O)c1cc(O)c(O)c(O)c1 [TETRADECYL GALLATE]	–
250 (≈ 771 µM)	200 (≈ 616 µM)	200 (≈ 616 µM)	100 (≈ 308 µM)	> 250	> 250	> 250	125 (≈ 385 µM)	–	125 (≈ 385 µM)	100 (≈ 308 µM)	CCCCCCCCCCCOC(=O)c1cc(O)c(O)c(O)c1 [UNDECYL GALLATE]	–
100 (≈ 793 µM)	100 (≈ 793 µM)	100 (≈ 793 µM)	62.5 (≈ 496 µM)	100 (≈ 793 µM)	> 250	> 250	50 (≈ 396 µM)	12.5 (≈ 99.1 µM)	25 (≈ 198 µM)	50 (≈ 396 µM)	Oc1cccc(O)c1O [PYROGALLOL]	–
–	–	–	–	–	–	–	0.04 (≈ 0.137 µM)	0.004 (≈ 0.0137 µM)	0.01 (≈ 0.0343 µM)	0.04 (≈ 0.137 µM)	CN(C/C=C/C#CC(C)(C)C)Cc1cccc2ccccc12 [TERBINAFINE]	–
> 250	> 250	> 250	> 250	> 250	> 250	> 250	> 250	250 (≈ 592 µM)	250 (≈ 592 µM)	> 250	CCCCCCCCCCCCCCCCCCOC(=O)c1cc(O)c(O)c(O)c1 [OCTADECYL GALLATE]	–
> 250	> 250	> 250	> 250	> 250	> 250	> 250	250 (≈ 634 µM)	–	250 (≈ 634 µM)	125 (≈ 317 µM)	CCCCCCCCCCCCCCCCOC(=O)c1cc(O)c(O)c(O)c1 [HEXADECYL GALLATE]	–
> 250	> 250	> 250	> 250	> 250	> 250	> 250	100 (≈ 505 µM)	100 (≈ 505 µM)	100 (≈ 505 µM)	100 (≈ 505 µM)	CCOC(=O)c1cc(O)c(O)c(O)c1 [ETHYLGALLATE]	–
8 (≈ 27 µM)	8 (≈ 27 µM)	8 (≈ 27 µM)	8 (≈ 27 µM)	62.5 (≈ 211 µM)	62.5 (≈ 211 µM)	125 (≈ 422 µM)	8 (≈ 27 µM)	25 (≈ 84.4 µM)	8 (≈ 27 µM)	8 (≈ 27 µM)	CCCCCCCCCOC(=O)c1cc(O)c(O)c(O)c1 [NONYL GALLATE]	3.7
> 250	> 250	> 250	> 250	> 250	> 250	> 250	25 (≈ 98.3 µM)	25 (≈ 98.3 µM)	25 (≈ 98.3 µM)	25 (≈ 98.3 µM)	CCCCCCOC(=O)c1cc(O)c(O)c(O)c1 [HEXYL GALLATE]	–
